In article PMC3605653 (The Journal of Biological Chemistry, 2013):

Tests used:
[1] = molecular target: T1, ELIC (Erwinia chrysanthemi ligand-gated ion channel) (Dickeya chrysanthemi, UniProt P0C7B7); assay: two-electrode voltage clamp, Xenopus oocytes; type: cell-based; settings: agonist; pH 7.4, 18 °C, -60 mV; concentration used as EC20
T1 sequence (P0C7B7 1-321): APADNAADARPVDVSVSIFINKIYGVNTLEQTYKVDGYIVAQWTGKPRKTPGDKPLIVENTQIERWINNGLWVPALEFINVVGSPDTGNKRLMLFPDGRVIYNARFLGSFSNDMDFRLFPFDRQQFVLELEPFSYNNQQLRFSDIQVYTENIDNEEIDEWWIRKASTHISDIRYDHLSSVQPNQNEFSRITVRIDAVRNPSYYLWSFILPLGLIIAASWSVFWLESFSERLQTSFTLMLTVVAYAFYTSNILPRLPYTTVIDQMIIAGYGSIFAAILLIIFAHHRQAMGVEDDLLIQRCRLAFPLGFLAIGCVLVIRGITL

[2] = molecular target: T1, ELIC (Erwinia chrysanthemi ligand-gated ion channel); assay: two-electrode voltage clamp, Xenopus oocytes; type: cell-based
[3] = molecular target: ELIC (Erwinia chrysanthemi ligand-gated ion channel) (Dickeya chrysanthemi, UniProt P0C7B7, L239S/W223A); assay: cell-based; settings: read-out: remaining EC20 current (%) at 200 μM
[4] = molecular target: ELIC (Erwinia chrysanthemi ligand-gated ion channel) (Dickeya chrysanthemi, UniProt P0C7B7, F273A/L239S); assay: cell-based; settings: read-out: remaining EC20 current (%) at 200 μM

EC20 [1] | SMILES | IC50 [2] | remaining activity at 200 µM [3] | remaining activity at 200 µM [4]
3000 µM | NCCCC(=O)O [GABA] |  |  | 
 | BrC(Br)Br [bromoform] | 125 ± 10 µM | 81 ± 6% | 78 ± 4%
 | ClC(Cl)Cl [chloroform] | 162 ± 26 µM |  | 
